For experiment [1], the system named is Helicobacter pylori (CPY-433 F4). The experiment can be described thus: Bacteria eradication effect of urease inhibitor (in vivo) in infected mice. The following applies: male ICR mice, 10 mg/kg p.o. twice daily, lansoprazole 30 mg/kg s.c. once daily before first dose.
Experiment [2] has as its target T1, Helicobacter pylori-derived urease (Helicobacter pylori, UniProt P69996).
T1 construct: an urease solution prepared from Helicobacter pylori; endogenous in cells
The experiment can be described thus: Screening of urease inhibitors (ammonia yield from urea). The class given is biochemical. The protocol: Screening of Urease Inhibitors
One hundred (100) μl of 100 mM Bis-Tris buffer (pH 6.5) and 60 μl of an urease solution prepared from Helicobacter pylori were added to 20 μl of a test drug dissolved in 0.1% dimethylformamide solution. The mixture was incubated at room temperature for 30 minutes, and then 20 μl of 100 mM urea was added. The mixture was kept at room temperature for 10 minutes, and then the yielded ammonia in the incubation mixture was measured using a commercial test kit (Ammonia Test Wako®; Wako Pure Chemical). The percent inhibition against the yield of ammonia in the solvent addition group was calculated to obtain the IC50 value.

For experiment [3], the system named is Helicobacter pylori CPY 433 F4. Description: Bacteria eradication effect of flurofamide in infected mice. Format: in vivo. The note with it: male Crj:ICR mice; 100 mg/kg p.o. twice daily, 7 days, in 0.5% methylcellulose containing 1% sodium bicarbonate; * p<0.05 (chi^2 test); control 0/4. The protocol:
Bacteria Eradication Effect of Flurofamide
To 5-week-aged male Crj:ICR mice previously fasted for 30 hours, Helicobacter pylori CPY 433 F4 was inoculated intragastrically at 10^7 CFU per mouse. One week after the infection, a test compound which was suspended in 0.5% methylcellulose containing 1% sodium bicarbonate was orally administered at 100 mg/kg twice daily for 7 days. On the next day after the final administration, the stomach of the infected mouse was excised and homogenated. A series of 10-fold dilutions were inoculated to modified Skirrow medium supplemented with activated charcoal and incubated at 37° C. for 4 days under slightly aerobic conditions. The bacteria eradication effect was determined by investigating whether bacterial growth was seen or not.

[4] abbreviates: 4 days for therapy, control 0/5.

Each structure is given as a SMILES string. Like-named read-outs stand apart in the source and are kept apart here.

What is called IC50 is the concentration that inhibits the measured activity by half.

T1 sequence (P69996 whole entry, looked up): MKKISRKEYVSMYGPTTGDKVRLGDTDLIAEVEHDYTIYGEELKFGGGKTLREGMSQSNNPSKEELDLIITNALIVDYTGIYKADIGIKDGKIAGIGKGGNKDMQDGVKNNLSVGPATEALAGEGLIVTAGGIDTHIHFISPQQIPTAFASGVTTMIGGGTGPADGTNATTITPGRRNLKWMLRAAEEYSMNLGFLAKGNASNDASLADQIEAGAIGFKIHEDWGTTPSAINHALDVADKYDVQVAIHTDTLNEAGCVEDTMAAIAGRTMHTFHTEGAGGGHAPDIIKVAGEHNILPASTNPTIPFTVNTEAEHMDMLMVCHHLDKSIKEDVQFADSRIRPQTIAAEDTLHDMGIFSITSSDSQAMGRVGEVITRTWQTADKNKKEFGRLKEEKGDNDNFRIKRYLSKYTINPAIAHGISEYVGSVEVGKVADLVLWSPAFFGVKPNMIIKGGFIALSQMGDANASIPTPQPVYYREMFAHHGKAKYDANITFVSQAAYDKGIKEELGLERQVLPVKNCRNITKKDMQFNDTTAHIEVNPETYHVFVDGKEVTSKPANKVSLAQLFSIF

Take `NP(N)(=O)NC(=O)c1ccsc1` [Example 2, N-(Diaminophosphinyl)-3-thiophenecarboxamide]: the “Eradication Rate” value in experiment [1] (setting [4]) is 2/5. The IC50 in experiment [2] came to 16 nM.

For the molecule `Cc1ccc(C(=O)NP(N)(N)=O)s1` [Example 3, N-(Diaminophosphinyl)-5-methyl-2-thiophenecarboxamide], in experiment [1] (setting [4]), the “Eradication Rate” value was 2/5. Besides, 5.5 nM corresponded to half-maximal inhibition in experiment [2] (IC50). For `NP(N)(=O)NC(=O)c1ccc(Cl)s1` [Example 5, N-(Diaminophosphinyl)-5-chloro-2-thiophenecarboxamide] the same measures were 3/5 and 3 nM. `CCc1ccc(C(=O)NP(N)(N)=O)s1` [Example 9, N-(Diaminophosphinyl)-5-ethyl-2-thiophenecarboxamide]: the “Eradication Rate” value in experiment [1] (2 days for therapy) was 1/5. In experiment [2], this molecule had a concentration for half-maximal inhibition (IC50) of 13 nM. Regarding `NP(N)(=O)NC(=O)c1csc(Br)c1` [Example 11, N-(Diaminophosphinyl)-5-bromo-3-thiophenecarboxamide], in experiment [1] (2 days for therapy), the “Eradication Rate” value is recorded as 1/5. The IC50 in experiment [2] worked out at 4.2 nM. For `N#Cc1ccc(C(=O)NP(N)(N)=O)s1` [Example 12, N-(Diaminophosphinyl)-5-cyano-2-thiophenecarboxamide] the same measures were 1/5 and 3.6 nM.

Consider `Cc1sccc1C(=O)NP(N)(N)=O` [Example 15, N-(Diaminophosphinyl)-2-methyl-3-thiophenecarboxamide], for which, in experiment [1] (2 days for therapy), the “Eradication Rate” value is given as 2/5. Besides, in experiment [2], the midpoint of inhibition, the IC50, lay at 1.7 nM. The corresponding values for `CC(=O)c1ccc(C(=O)NP(N)(N)=O)s1` [Example 17, N-(Diaminophosphinyl)-5-acetyl-2-thiophenecarboxamide] are 1/5 and 8.2 nM.

For `NP(N)(=O)NC(=O)c1sccc1C(F)F` [Example 19, N-(Diaminophosphinyl)-3-difluoromethyl-2-thiophenecarboxamide], the “Eradication Rate” value in experiment [1] (2 days for therapy) is listed as 1/5. The same molecule showed a half-maximal inhibitory concentration (IC50) in experiment [2] of 4.6 nM. The corresponding values for `N#Cc1ccsc1C(=O)NP(N)(N)=O` [Example 23, N-(Diaminophosphinyl)-3-cyano-2-thiophenecarboxamide] are 1/5 and 2.2 nM.

For `NP(N)(=O)NC(=O)c1cc(Cl)sc1Cl` [Example 25, N-(Diaminophosphinyl)-2,5-dichloro-3-thiophenecarboxamide], in experiment [1] (2 days for therapy), the “Eradication Rate” value is on record as 1/5. Also, in experiment [2], half-maximal inhibition (IC50) required 1.1 nM. For `NP(N)(=O)NC(=O)c1ccsc1Br` [Example 26, N-(Diaminophosphinyl)-2-bromo-3-thiophenecarboxamide] the same measures were 2/5 and 1.3 nM. The corresponding values for `Cc1csc(C(=O)NP(N)(N)=O)c1` [Example 28, N-(Diaminophosphinyl)-4-methyl-2-thiophenecarboxamide] are 1/5 and 1.5 nM. For `NP(N)(=O)NC(=O)c1csc(Cl)c1` [Example 30, N-(Diaminophosphinyl)-5-chloro-3-thiophenecarboxamide] the same measures were 1/5 and 4.3 nM. Regarding `Cc1cc(C(=O)NP(N)(N)=O)c(C)s1` [Example 32, N-(Diaminophosphinyl)-2,5-dimethyl-3-thiophenecarboxamide], in experiment [1] (2 days for therapy), the “Eradication Rate” value is on record as 2/5. The molecule also showed an IC50 in experiment [2] of 8.7 nM. The corresponding values for `Cc1occc1C(=O)NP(N)(N)=O` [Example 40, N-(Diaminophosphinyl)-2-methyl-3-furancarboxamide] are 1/5 and 7.9 nM. With `NP(N)(=O)NC(=O)c1coc(Br)c1` [Example 41, N-(Diaminophosphinyl)-5-bromo-3-furancarboxamide], the “Eradication Rate” value in experiment [1] (2 days for therapy) is 1/5. Besides, the half-inhibitory concentration (IC50) in experiment [2] was 7.7 nM. The corresponding values for `CCc1ccc(C(=O)NP(N)(N)=O)o1` [Example 44, N-(Diaminophosphinyl)-5-ethyl-2-furancarboxamide] are 1/5 and 14 nM. The corresponding values for `NP(N)(=O)NC(=O)c1ccoc1Cl` [Example 45, N-(Diaminophosphinyl)-2-chloro-3-furancarboxamide] are 1/5 and 1.4 nM.

With `NP(N)(=O)NC(=O)c1coc(Cl)c1` [Example 46, N-(Diaminophosphinyl)-5-chloro-3-furancarboxamide], the “Eradication Rate” value in experiment [1] (2 days for therapy) is given as 1/5. For the same molecule, the midpoint of inhibition in experiment [2], the IC50, lay at 5.7 nM. As for `NP(N)(=O)NC(=O)COc1ccc(F)cc1` [Example 54, N-(Diaminophosphinyl)-4-fluorophenoxyacetamide], the “Eradication Rate” value in experiment [1] (3 days for therapy) is listed as 1/5. In addition, in experiment [2], the IC50 was 3.3 nM. `NP(N)(=O)NC(=O)c1ccc(F)cc1` [Reference Example 1, N-(Diaminophosphinyl)-4-fluorobenzamide, reference compound]: in experiment [3], the “Eradication Rate” value is given as 4/5. In experiment [2] (Bis-Tris pH 6.5, room temperature, 30 min preincubation, 10 min with urea, read-out: IC50, inhibitory effect against Helicobacter pylori-derived urease), the concentration for half-maximal inhibition (IC50) amounted to 5 nM.

Consider `N#Cc1ccc(C(=O)NP(N)(N)=O)cc1` [Reference Example 17, N-(Diaminophosphinyl)-4-cyanobenzamide], for which, in experiment [1] (setting [4]), the “Eradication Rate” value is on record as 1/5. This molecule returned a half-maximal inhibitory concentration (IC50) in experiment [2] of 5.4 nM. For `NP(N)(=O)NC(=O)c1ccc(Br)cc1` [Reference Example 22, N-(Diaminophosphinyl)-4-bromobenzamide] the same measures were 1/5 and 9.3 nM. The corresponding values for `NP(N)(=O)NC(=O)c1cccc([N+](=O)[O-])c1` [Reference Example 23, N-(Diaminophosphinyl)-3-nitrobenzamide] are 1/5 and 5.7 nM. The corresponding values for `NP(N)(=O)NC(=O)c1ccco1` [Reference Example 25, N-(Diaminophosphinyl)-2-furancarboxamide] are 1/5 and 1.9 nM.

As for `NP(N)(=O)NC(=O)c1ccoc1` [Reference Example 29, N-(Diaminophosphinyl)-3-furancarboxamide], the “Eradication Rate” value in experiment [1] (setting [4]) is 2/5. Besides, the IC50 in experiment [2] was found to be 5.9 nM.

Take `NP(N)(=O)NC(=O)c1ccc([N+](=O)[O-])o1` [Reference Example 30, N-(Diaminophosphiny1)-5-nitro-2-furancarboxamide]: the “Eradication Rate” value in experiment [1] (3 days for therapy) was 2/5. For the same molecule, the half-maximal inhibitory concentration (IC50) in experiment [2] worked out at 4.3 nM. Molecule `NP(N)(=O)NC(=O)C=Cc1cccc(F)c1` [compound 35, N-(Diaminophosphinyl)-3-fluorocinnamamide] came in with an IC50 in experiment [2] of 17 nM.

`NP(N)(=O)NC(=O)C=Cc1ccc(Cl)c(Cl)c1` [compound 36, N-(Diaminophosphinyl)-3,4-dichlorocinnamamide] registered an IC50 in experiment [2] of 8.9 nM. `NP(N)(=O)NC(=O)CCc1ccc(Cl)cc1` [compound 39, N-(Diaminophosphinyl)-3-(4-chlorophenyl)propionamide] returned a 50% inhibitory concentration (IC50) in experiment [2] of 5.9 nM. Still for that read-out and setting: the result for `N#Cc1ccc(CCC(=O)NP(N)(N)=O)cc1` [compound 40, N-(Diaminophosphinyl)-3-(4-cyanophenyl)propionamide] reads 18 nM; that for `NP(N)(=O)NC(=O)CCc1cccc(F)c1` [compound 42, N-(Diaminophosphinyl)-3-(3-fluorophenyl) propionamide], 22 nM; that for `Nc1ccccc1CCC(=O)NP(N)(N)=O` [compound 43, N-(Diaminophosphinyl)-3-(2-aminophenyl) propionamide], 71 nM. The same measure, in the same setting: the result for `Nc1ccc(OCC(=O)NP(N)(N)=O)cc1` [compound 44, N-(Diaminophosphinyl)-4-aminophenoxyacetamide] reads 11 nM.

Values taken from patent US5840917A, “Phosphorylamides, their preparation and use” (Takeda Chemical Industries, Ltd., priority 1995, dated 1998).
